{"source": "patent US6680054B1", "about": "(priority 1996, dated 2004)", "key": {"[1]": {"tested_on": "influenza strain G70C", "assay_type": "cell-based"}, "[2]": {"tested_on": "NWS/G70C influenza A virus"}}, "data": [{"substance": "Fetuin", "values": [{"measurement": "Lowest Concentration (μM of GG167 units) that Inhibited Agglutination, G70C", "setting": "[1]", "value": 0.73, "unit": "µM"}]}, {"substance": "GG167-Bovine Serum Albumin-Biotin conjugate [Compound 3a]", "values": [{"measurement": "amount of virus clearly detected", "setting": "[2]", "value": "10^6 pfu"}, {"measurement": "compound concentration giving the best result", "setting": "[2]", "value": 0.1, "unit": "µM"}, {"measurement": "detection signal at higher concentrations of compound", "setting": "[2]", "value": "the signal was weaker"}, {"measurement": "detection signal at lower concentrations", "setting": "[2]", "value": "the detection signal was also weaker"}]}]}
